Results from paper PMC7029851, “Antibacterial activity of novel dual bacterial DNA type II topoisomerase inhibitors” (PLoS ONE, 2020).
In brackets after ≈: the same amount, converted by molar mass. Like-named read-outs stand apart in the source and are kept apart here.

Legend:
[1] = system: CYP1A, CYP2B6, CYP2C8, CYP2C9, CYP2D6 and CYP3A4; test: Inhibition of P450 isoenzymes; type: in vitro ADME; details: human, read-out: % inhibition of CYP450 isoenzymes other than CYP2C19
Excerpt: (§1) Inhibition of P450 isoenzymes.

CYP2C19 = CYP2C19 (Homo sapiens, UniProt P33261); test: Inhibition of P450 isoenzymes; type: in vitro ADME
Chain of CYP2C19 (P33261 whole entry): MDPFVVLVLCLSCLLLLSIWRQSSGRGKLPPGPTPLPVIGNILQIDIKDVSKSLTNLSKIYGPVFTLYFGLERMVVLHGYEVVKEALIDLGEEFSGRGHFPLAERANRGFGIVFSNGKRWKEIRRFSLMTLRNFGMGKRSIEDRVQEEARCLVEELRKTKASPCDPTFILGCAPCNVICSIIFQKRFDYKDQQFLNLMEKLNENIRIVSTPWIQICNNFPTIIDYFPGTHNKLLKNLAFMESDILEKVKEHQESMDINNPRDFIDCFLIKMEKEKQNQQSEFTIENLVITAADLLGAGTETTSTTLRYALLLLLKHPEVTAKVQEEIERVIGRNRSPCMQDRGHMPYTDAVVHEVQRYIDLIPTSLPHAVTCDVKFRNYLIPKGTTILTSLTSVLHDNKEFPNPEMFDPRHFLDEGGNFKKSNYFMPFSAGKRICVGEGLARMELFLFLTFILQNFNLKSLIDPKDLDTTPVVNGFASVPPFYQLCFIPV
Excerpt: as §1

[2] = system: HepG2 mammalian cell line; test: Cytotoxicity assay (CellTiter-Blue); type: cell-based; details: Homo sapiens, HepG2, 24 hours of incubation, read-out: IC50 mammalian cell viability
Experimental: Cytotoxicity assay. Cytotoxicity of compounds 1 and 2 was assessed, after 24 hours of incubation in EMEM containing 10% fetal bovine serum, HepG2 mammalian cell line viability was evaluated using CellTiter-Blue Cell Viability Assay (Promega, WI, USA) according to the manufacturer’s instructions. Concentration-response curves were obtained by non-linear regression analysis using the GraphPad PRISM 6 software.

E. coli ATCC 25922 = test: Minimal bactericidal concentration; type: cell-based, Escherichia coli; details: for MBC: Escherichia coli, ATCC25922, ≥99.9% reduction of inoculum
Experimental: Minimal bactericidal concentrations (MBCs) were determined according to the procedure described by Knapp. Viable counts were performed after plates were incubated at 37°C for 24 hours. The MBC was defined as the lowest concentration that reduced the viability of the initial bacterial inoculum by ≥99.9%.

Row | Structure (SMILES) | inhibition at 10 µM [1] [%] | inhibition at 10 µM (CYP2C19) [%] | IC50 [2] [µM] | IC50 ([2]; same value in μg/ml) [µg/mL] | MBC/MIC (E. coli ATCC 25922) | MBC (E. coli ATCC 25922) [µg/mL]
1 | Cl.N#Cc1ccc2ccc(=O)n([C@H]3CC[C@H](NCc4cc5c(=O)oc6ccc(F)cc6c5[nH]4)CC3)c2c1 [Compound 2, 1-(trans-4-{[(8-fluoro-4-oxo-1,4-dihydro[1]benzopyrano[4,3-b]pyrrol-2-yl)methyl]amino}cyclohexyl)-2-oxo-1,2-dihydroquinoline-7-carbonitrile hydrochloride] | ≤ 35 | 69 | > 300 | > 145 | 2 | 1
2 | O=C1COc2ncc(F)cc2N1[C@H]1CC[C@H](NCc2cc3c(=O)oc4ccc(F)cc4c3[nH]2)CC1 [Compound 1, 8-fluoro-2-({[trans-4-(7-fluoro-2-oxo-2,3-dihydro-1H-pyrido[2,3-b][1,4]oxazin-1-yl)cyclohexyl]amino}methyl)[1]benzopyrano[4,3-b]pyrrol-4(1H)-one] | ≤ 35 | 52 | 9 | 4 | 2 | 1 (≈ 2.08 µM)
